Data reported in publication PMC9863562, “Design, Synthesis, and Biological Evaluation of 2-Mercaptobenzoxazole Derivatives as Potential Multi-Kinase Inhibitors” (Pharmaceuticals, 2023).

Experiments:
[1] = tested on: HepG2 cells (hepatocellular carcinoma); experiment: MTT cytotoxicity assay, HepG2; format: cell-based; settings: Homo sapiens, HepG2, 24 h, 24 h treatment, read-out: In Vitro Cytotoxicity IC50 HepG2
Description: (§1) The in vitro cytotoxicity for the final target compounds, 4(a–d), 5(a–f), and 6(a–b), was preliminarily evaluated via the MTT colorimetric assay against a panel of four human cell lines, namely, the hepatocellular carcinoma (HepG2), mammary gland (MCF-7), breast cancer (MDA-MB-231) and epithelioid cervix carcinoma (HeLa).
(§2) The cytotoxicity of the target hybrids was examined by an MTT assay against HepG2, HeLa, MCF-7, and MDA-MB-231. At first, the RPMI-1640 medium with 10% fetal bovine serum was used to cultivate the cell lines. Then, antibiotics (penicillin (100 units/mL) and streptomycin (100 µg/mL)) were added in a 37 °C incubator in 5% CO2. The cell lines were seeded in a 96-well plate at a density of 1.0 × 10^4 cells/well at 37 °C under 5% CO2 for 48 h. After incubation, the cells were treated with various concentrations of the synthesized compounds and incubated for an additional 24 h. Following the drug treatment, 20 µL of 5 mg/mL MTT solution was added and incubated for 4 h. To dissolve the purple formazan that had formed, 100 µL dimethyl sulfoxide (DMSO) was added to each well. At a wavelength of 570 nm, the colorimetric assay was recorded and measured, using a plate reader BioTek EXL 800 (Agilent Technologies, Inc., Santa Clara, CA, USA). The percentage of relative cell viability was counted using the following formula (A570 of handled specimens/A570 of the unhandled specimen), multiplied by 100. The results of the cytotoxicity value were presented as the median growth inhibitory concentration (IC50) of the reagents compared to the control.

[2] = tested on: HeLa cells (epithelioid cervix carcinoma); experiment: MTT cytotoxicity assay, HeLa; format: cell-based; settings: Homo sapiens, 24 h treatment, read-out: In Vitro Cytotoxicity IC50 Hela
Procedure: (§3) After incubation, the cells were treated with various concentrations of the synthesized compounds and incubated for an additional 24 h. Following the drug treatment, 20 µL of 5 mg/mL MTT solution was added and incubated for 4 h. To dissolve the purple formazan that had formed, 100 µL dimethyl sulfoxide (DMSO) was added to each well. […] The percentage of relative cell viability was counted using the following formula (A570 of handled specimens/A570 of the unhandled specimen), multiplied by 100.

[3] = tested on: MCF-7 cells (mammary gland cancer); experiment: MTT cytotoxicity assay, MCF-7; format: cell-based; settings: Homo sapiens, MCF7, 24 h treatment, read-out: In Vitro Cytotoxicity IC50 MCF-7
Procedure: as §3

Bcl-2 = experiment: Apoptosis-related proteins in HepG2 cells (ELISA), Bcl-2; format: cell-based, human
Description: (§4) Compound 6b was selected to investigate the apoptotic markers against the liver cancer cell line (HepG2). […] Typically, Bax, Bcl-2, and caspases contribute to the regulation of apoptotic signaling. Acting as an apoptotic activator (Bax) or inhibitor (Bcl-2), the Bcl-2 family of proteins plays a significant role in apoptosis. The caspase family comprises cysteine proteases that are classified as either executioner—caspase-3, or as initiators—caspase-9 and caspase-8 [40]. […] Nevertheless, considerable downregulation of the anti-apoptotic gene, Bcl-2 (0.26 folds), was described, leading to an increased expression ratio of Bax/Bcl-2 (1→20.53). The Bax/Bcl-2 gene expression ratio can serve as an early predictor for cancer in patients and is a sensitive monitor of cancer progression. […]
(§5) The HepG2 cells were incubated in 96-well plates in triplicates and left for 24 h. […] The treated cells, along with control cells, were then incubated for another 24 h; then, caspases-3 and 9, BAX, and Bcl-2 levels were determined using ELISA assay kits; KHO1091 (Invitrogen^TM, Grand Island, NY, USA), EIA-4860 (DRU International, Inc., Mountainside, NJ, USA), EIA-4487 (DRU International INC., Mountainside, NJ, USA) and 99–0042 (Invitrogen^TM, Grand Island, NY, USA), respectively, according to their manufacturers’ procedures.

HepG2 cells = experiment: Cell-cycle flow cytometry analysis (PI staining); format: cell-based, human; settings: HepG2, 6b at 6.83 μM, 24 h
Procedure: Programmed cell death is a fundamental cellular program that is inherent in every cell of the human body. One of the most extensively studied forms of programmed cell death is apoptosis, which plays an important role during the various physiological processes and is involved in a variety of pathological conditions. The HepG2 cells were exposed to compound 6b for 24 h and the cell cycle was monitored via flow cytometry; the results are reported in Table 5.
To detect the effect of the synthesized compound, 6b, on cell cycle distribution, flow cytometry analysis was carried out, utilizing propidium iodide (PI) staining. The kit used for the cell cycle flow cytometry analysis was the K101-100 Annexin V-FITC Apoptosis Detection Kit (BioVision, Mountain View, CA, USA). […] Then, the treated cells were fixed in 70% ethanol for 12 h at 4 °C. Following that, the cells were rinsed with cold PBS, incubated with 100 μL RNase A for 0.5 h at 37 °C, and stained with propidium iodide (400 μL) in the dark at RT for an extra 0.5 h. The stained cells were determined, utilizing Epics XLMCL™ flow cytometer equipment (Beckman Coulter, Apeldoorn, Netherlands), then the results were collected and analyzed with the Flowing software (version 2.5.1, Turku Center for Biotechnology, Turku, Finland).

Caspase-3 = experiment: Apoptosis-related proteins in HepG2 cells (ELISA), Caspase-3; format: cell-based, human
Description: as §4, §5

[4] = tested on: HepG2, MCF-7, MDA-MB-231 and HeLa cell lines; experiment: MTT cytotoxicity assay, panel of four cell lines; format: cell-based; settings: Homo sapiens, range over HepG2, MCF-7, MDA-MB-231, HeLa, read-out: IC50 values, range over the tested cell lines
Description: as §1, §2

O=C(CSc1nc2ccccc2o1)NN=Cc1ccc[nH]1 (mixture of isomers) [Compound 6b, (E/Z)-N′-((1H-pyrrol-2-yl)methylene)-2-(benzo[d]oxazol-2-ylthio)acetohydrazide]
IC50 [1]: ~6.83 µM
IC50 [2]: 5.18 ± 0.5 µM
IC50 [3]: 3.64 ± 0.2 µM
Bcl-2 Expression (Bcl-2; 24 h treatment, ELISA): 2.822 ± 0.21 pg/mL
Bcl-2 Fold (Bcl-2; versus control HepG2 = 1): 0.26 fold
%G0–G1 (HepG2 cells): 40.37%
%G2/M (HepG2 cells): 31.26%
%Pre–G1 (HepG2 cells): 16.84%
%S (HepG2 cells): 28.37%
Caspase-3 Expression (Caspase-3; 24 h treatment, ELISA): 467.6 ± 24 pg/mL
Caspase-3 Fold (Caspase-3; versus control HepG2 = 1): 5.02 fold
IC50 [4]: 2.14 to 19.3 µM
